Data as given in US11505536B2, “Dihydroorotate dehydrogenase inhibitors” (Janssen Biotech, Inc., priority 2019, dated 2022).

Assays:
human DHODH = human DHODH (Homo sapiens (Human), UniProt Q02127); experiment: DHODH Enzymatic Assay; assay type: biochemical; conditions: purified human DHODH, DCIP absorbance, end-point mode; read-out: hDHODH IC50
Experimental: The following assay is referred to herein as the “DHODH Enzymatic Assay.” To detect DHODH enzyme activities, dichloroindophenol (DCIP) is added as the final electron acceptor in the assay. DCIP can accept electrons from the reduced coenzyme Q generated in the assay, or from dihydroorotate (DHO) via FMN by binding presumably to the ubiquinone pocket. DCIP solutions are blue, with an intense absorbance around 600 nm, but becomes colorless upon reduction (J. Biol. Chem. (1986) 261, 11386). The assay buffer contained […], pH 7.5, 150 mM NaCl, 0.5 mM EDTA, and 0.1% Triton X-100 in MilliQ water. Substrate consisting of 20 mM DHO, 5 mM CoQ6, and 1 mM DCIP in assay buffer, initiates the reaction. The assay is run in end-point mode by quenching the reaction with the potent DHODH inhibitor brequinar. Absorbance measurements were obtained using the BMG Phera Star plate-reading spectrophotomer. Purified human DHODH was purchased from Proteros (cat. No. PR-0044). Chemicals were purchased from Sigma-Aldrich, Teknova, and Avanti Polar Lipids. Liquid handling was performed using Labcyte Echo and Formulatrix Tempest.

[1] = test system: MOLM-13 cells (human acute myeloid leukemia cells); experiment: MOLM-13 Cellular Assay; assay type: cell-based; conditions: Homo sapiens, MOLM-13, 72 h, 72 hours exposure, cell viability by CellTiter-Glo
Experimental: The following assay is referred to herein as the “MOLM-13 Cellular Assay.” MOLM-13 cells (human acute myeloid leukemia cells) were obtained from DSMZ and were maintained in RPMI 1640+Glutamax+25 mM HEPES (Invitrogen, catalog number 72400) supplemented with 10% heat inactivated fetal bovine serum (FBS; Invitrogen, catalog number 16140). The day prior to assay set-up, cells were pelleted, resuspended in fresh media, counted, and cells were plated at 0.4×10^6 cell/mL in a T150 flask. On the day of the assay, cells were pelleted, resuspend in fresh media, counted and seeded at 5,000 cells/well in white opaque 96-well tissue culture treated microplates (Perkin Elmer, catalog number 6005680). Cells were exposed to different concentrations of test compounds at 37° C., 5% CO2 for 72 hours immediately after seeding. Cell viability was acquired on a Perkin Elmer Envision 2104 multilabel reader using the CellTiter-Glo assay (Promega) according to the manufacturer's instructions.

Chain of human DHODH (Q02127 whole entry): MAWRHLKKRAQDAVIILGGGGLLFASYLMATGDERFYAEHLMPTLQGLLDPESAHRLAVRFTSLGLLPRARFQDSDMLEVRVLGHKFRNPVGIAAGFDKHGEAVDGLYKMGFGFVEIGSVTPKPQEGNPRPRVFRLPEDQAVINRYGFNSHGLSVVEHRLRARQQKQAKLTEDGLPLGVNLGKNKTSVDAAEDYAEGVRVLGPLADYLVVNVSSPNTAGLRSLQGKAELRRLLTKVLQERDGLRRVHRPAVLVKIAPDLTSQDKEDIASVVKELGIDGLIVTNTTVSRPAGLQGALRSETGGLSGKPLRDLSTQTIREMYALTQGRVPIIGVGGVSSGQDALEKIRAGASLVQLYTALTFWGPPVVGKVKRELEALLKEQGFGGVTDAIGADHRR

Structure (SMILES) | IC50 (human DHODH) [nM] | IC50 [1] [nM]
CCC(C)c1cn(-c2c(F)cccc2Cl)c(=O)c2cc(F)c(-n3nc(CO)n(CC)c3=O)cc12 (racemic) [Example 48, Racemic-4-(sec-Butyl)-2-(2-chloro-6-fluorophenyl)-6-(4-ethyl-3-(hydroxymethyl)-5-oxo-4,5-dihydro-1H-1,2,4-triazol-1-yl)-7-fluoroisoquinolin-1(2H)-one] | 0.907 | 0.6
CCn1c(CO)nn(-c2cc3c(C(C)C(F)(F)F)nn(-c4ccccc4C)c(=O)c3cc2F)c1=O (racemic) [Example 55, Racemic 6-(4-Ethyl-3-(hydroxymethyl)-5-oxo-4,5-dihydro-1H-1,2,4-triazol-1-yl)-7-fluoro-2-(o-tolyl)-4-(1,1,1-trifluoropropan-2-yl)phthalazin-1(2H)-one] | 1.2 | 0.5
CCn1c(CO)nn(-c2cc3c(C(C)C(F)(F)F)cn(-c4ccccc4C)c(=O)c3cc2F)c1=O (racemic) [Example 88, Racemic-6-(4-Ethyl-3-(hydroxymethyl)-5-oxo-4,5-dihydro-1H-1,2,4-triazol-1-yl)-7-fluoro-2-(o-tolyl)-4-(1,1,1-trifluoropropan-2-yl)isoquinolin-1(2H)-one] | 0.52 | 0.9
CCn1c(CO)nn(-c2cc3c(C(C)C)cn([C@H]4CC[C@@H](OC)C4)c(=O)c3cc2F)c1=O (racemic) [Example 119, Racemic 6-(4-Ethyl-3-(hydroxymethyl)-5-oxo-4,5-dihydro-1H-1,2,4-triazol-1-yl)-7-fluoro-4-isopropyl-2-((cis)-3-methoxycyclopentyl)isoquinolin-1(2H)-one] | 10.1 | 10
CCn1c(CO)nn(-c2cc3c(C(C)C)cn([C@H]4CCC[C@@H](OC)C4)c(=O)c3cc2F)c1=O (racemic) [Example 127, Racemic 6-(4-Ethyl-3-(hydroxymethyl)-5-oxo-4,5-dihydro-1H-1,2,4-triazol-1-yl)-7-fluoro-4-isopropyl-2-((cis)-3-methoxycyclohexyl)isoquinolin-1(2H)-one] | 181 | > 100
CCn1c(CO)nn(-c2cc3c([C@H](C)C(F)(F)F)nn(-c4ccccc4C)c(=O)c3cc2F)c1=O (single isomer, unassigned) [Example 56, (S*)-6-(4-Ethyl-3-(hydroxymethyl)-5-oxo-4,5-dihydro-1H-1,2,4-triazol-1-yl)-7-fluoro-2-(o-tolyl)-4-(1,1,1-trifluoropropan-2-yl)phthalazin-1(2H)-one] | 2.31 | 2
CCn1c(CO)nn(-c2cc3c([C@@H](C)C(F)(F)F)nn(-c4ccccc4C)c(=O)c3cc2F)c1=O (single isomer, unassigned) [Example 57, (R*)-6-(4-Ethyl-3-(hydroxymethyl)-5-oxo-4,5-dihydro-1H-1,2,4-triazol-1-yl)-7-fluoro-2-(o-tolyl)-4-(1,1,1-trifluoropropan-2-yl)phthalazin-1(2H)-one] | 1.15 | 1
CCn1c(CO)nn(-c2cc3c(C(C)C)cn([C@@H]4CCCC[C@H]4C)c(=O)c3cc2F)c1=O (stereo in doubt) [Example 120, 6-(4-Ethyl-3-(hydroxymethyl)-5-oxo-4,5-dihydro-1H-1,2,4-triazol-1-yl)-7-fluoro-4-isopropyl-2-((1R*,2R*)-2-methylcyclohexyl)isoquinolin-1(2H)-one] | 1.68 | 1
CCn1c(CO)nn(-c2cc3c(C(C)C)cn([C@H]4CCCC[C@@H]4C)c(=O)c3cc2F)c1=O (stereo in doubt) [Example 121, 6-(4-Ethyl-3-(hydroxymethyl)-5-oxo-4,5-dihydro-1H-1,2,4-triazol-1-yl)-7-fluoro-4-isopropyl-2-((1S*,2S*)-2-methylcyclohexyl)isoquinolin-1(2H)-one] | 7.41 | 4
CCn1c(CO)nn(-c2cc3c(C(C)C)cn([C@@H]4CCC[C@H]4C)c(=O)c3cc2F)c1=O (stereo in doubt) [Example 123, 6-(4-Ethyl-3-(hydroxymethyl)-5-oxo-4,5-dihydro-1H-1,2,4-triazol-1-yl)-7-fluoro-4-isopropyl-2-((1R*,2R*)-2-methylcyclopentyl)isoquinolin-1(2H)-one] | 16.8 | 9
CCn1c(CO)nn(-c2cc3c(C(C)C)cn([C@H]4CCC[C@@H]4C)c(=O)c3cc2F)c1=O (stereo in doubt) [Example 124, 6-(4-Ethyl-3-(hydroxymethyl)-5-oxo-4,5-dihydro-1H-1,2,4-triazol-1-yl)-7-fluoro-4-isopropyl-2-((1S*,2S*)-2-methylcyclopentyl)isoquinolin-1(2H)-one] | 1.36 | 0.9
CCn1c(CO)nn(-c2cc3c(C(C)C)cn([C@@H]4CCC[C@@H]4C)c(=O)c3cc2F)c1=O (stereo in doubt) [Example 125, 6-(4-Ethyl-3-(hydroxymethyl)-5-oxo-4,5-dihydro-1H-1,2,4-triazol-1-yl)-7-fluoro-4-isopropyl-2((1R*,2S*)-2-methylcyclopentyl)isoquinolin-1(2H)-one] | 15.5 | 6
CCn1c(CO)nn(-c2ccc3c(=O)n(-c4cccc(F)c4)cc(C(C)(C)O)c3c2)c1=O [Example 25, 6-(4-Ethyl-3-(hydroxymethyl)-5-oxo-4,5-dihydro-1H-1,2,4-triazol-1-yl)-2-(3-fluorophenyl)-4-(2-hydroxypropan-2-yl)isoquinolin-1(2H)-one] | 4260 | –
C=C(C)c1nn(-c2c(F)cccc2Cl)c(=O)c2cc(F)c(-n3nc(CO)n(CC)c3=O)cc12 [Example 27, 2-(2-Chloro-6-fluorophenyl)-6-(4-ethyl-3-(hydroxymethyl)-5-oxo-4,5-dihydro-1H-1,2,4-triazol-1-yl)-7-fluoro-4-(prop-1-en-2-yl)phthalazin-1(2H)-one] | 0.32 | –
C=C(C)c1nn(-c2c(F)cccc2Cl)c(=O)c2cc(-n3nc(CO)n(CC)c3=O)c(F)cc12 [Example 28, 2-(2-Chloro-6-fluorophenyl)-7-(4-ethyl-3-(hydroxymethyl)-5-oxo-4,5-dihydro-1H-1,2,4-triazol-1-yl)-6-fluoro-4-(prop-1-en-2-yl)phthalazin-1(2H)-one] | 5.03 | –
C=C(C)c1nn(-c2c(F)cccc2Cl)c(=O)c2cc(OC)c(-n3nc(CO)n(CC)c3=O)cc12 [Example 29, 2-(2-Chloro-6-fluorophenyl)-6-(4-ethyl-3-(hydroxymethyl)-5-oxo-4,5-dihydro-1H-1,2,4-triazol-1-yl)-7-methoxy-4-(prop-1-en-2-yl)phthalazin-1(2H)-one] | 82.6 | –
C=C(C)c1nn(-c2c(F)cccc2Cl)c(=O)c2cc(-n3nc(CO)n(CC)c3=O)c(OC)cc12 [Example 30, 2-(2-Chloro-6-fluorophenyl)-7-(4-ethyl-3-(hydroxymethyl)-5-oxo-4,5-dihydro-1H-1,2,4-triazol-1-yl)-6-methoxy-4-(prop-1-en-2-yl)phthalazin-1(2H)-one] | 3480 | –
C=C(C)c1cn(-c2cc(F)ccc2C)c(=O)c2cc(F)c(-n3nc(CO)n(CC)c3=O)cc12 [Example 82, 6-(4-Ethyl-3-(hydroxymethyl)-5-oxo-4,5-dihydro-1H-1,2,4-triazol-1-yl)-7-fluoro-2-(5-fluoro-2-methylphenyl)-4-(prop-1-en-2-yl)isoquinolin-1(2H)-one] | 0.249 | –
CCn1c(CO)nn(-c2cc3c(C(C)C)cn(-c4cccnc4OC)c(=O)c3cc2F)c1=O [Example 90, 6-(4-Ethyl-3-(hydroxymethyl)-5-oxo-4,5-dihydro-1H-1,2,4-triazol-1-yl)-7-fluoro-4-isopropyl-2-(2-methoxypyridin-3-yl)isoquinolin-1(2H)-one] | 20.7 | –
CCn1c(CO)nn(-c2cc3c(C(C)C)cn(-c4ccccc4Cl)c(=O)c3cc2F)c1=O [Example 117, 2-(2-Chlorophenyl)-6-(4-ethyl-3-(hydroxymethyl)-5-oxo-4,5-dihydro-1H-1,2,4-triazol-1-yl)-7-fluoro-4-isopropylisoquinolin-1(2H)-one] | – | 0.3
CCn1c(CO)nn(-c2nc3c(C(C)C)cn(-c4ccccc4C(F)(F)F)c(=O)c3cc2F)c1=O [Example 133, 2-(4-Ethyl-3-(hydroxymethyl)-5-oxo-4,5-dihydro-1H-1,2,4-triazol-1-yl)-3-fluoro-8-isopropyl-6-(2-(trifluoromethyl)phenyl)-1,6-naphthyridin-5(6H)-one] | – | 2
CCn1c(CO)nn(-c2cc3c(C(C)C)cn(-c4nc(C)ccc4C)c(=O)c3cc2F)c1=O [Example 134, 2-(3,6-Dimethylpyridin-2-yl)-6-(4-ethyl-3-(hydroxymethyl)-5-oxo-4,5-dihydro-1H-1,2,4-triazol-1-yl)-7-fluoro-4-isopropylisoquinolin-1(2H)-one] | – | 8
